# According to patent publication US20010005721A1, “Heel crack healing composition and method therefor” (priority 1998, published 2001):
# How the values were obtained:
# [1] = system: cracks upon the heel and foot; experiment: Trial Study Series A: active ingredient studies 1-4
compound,measurement,setting,value
[O]=[Zn] [Zinc oxide],healing of cracks upon the heel and foot,[1]; zinc oxide concentration about 3%,optimal concentration
same,healing properties of the composition,[1]; zinc oxide concentration above about 5%,does not appear to affect the healing properties
same,healing,[1]; zinc oxide concentration less than about 1%,some slight decrease in the healing
C[C@]12CCC(=O)C=C1CC[C@@H]1[C@@H]2[C@@H](O)C[C@@]2(C)[C@H]1CC[C@]2(O)C(=O)CO [Hydrocortisone],effectiveness,[1]; hydrocortisone concentration about 0.5% or more,most effective concentrations
same,healing speed,[1]; hydrocortisone concentration greater than about 0.75%,promote a faster healing
same,effectiveness,[1]; hydrocortisone concentration less than about 0.25%,little worthwhile effect
same,effectiveness (healing time),[1]; hydrocortisone concentration less than about 0.5%,"generally less effective, having a lengthened healing time"
O=C(O)c1ccccc1O [Salicylic acid],defoliation versus therapeutic benefit,heel cracks; about 10% by weight salicylic acid,effects of rapid defoliation begin to exceed the therapeutic benefits
same,effect of raising the salicylic acid component,heel cracks; salicylic acid over about 6% or 7% by weight,negative results characterized not only by a rapid defoliation of the affected areas
same,effectiveness,[1]; salicylic acid concentration about 4%,most effective concentration
same,effectiveness,[1]; salicylic acid concentration about 5%,also an effective concentration
same,effectiveness / excessive exfoliation,[1]; salicylic acid concentration about 8-9%,not as effective due to excessive exfoliation
same,"effectiveness (exfoliation, healing time)",[1]; salicylic acid concentration less than about 4% in the composition,"generally less effective, promoting less exfoliation and having a lengthened healing time"
